Carcinogen call data for 5 molecules are collected here from PubChem BioAssay AID1259411 (Chemical Carcinogenesis Research Information System (CCRIS), 2018).

The test system of this data set is rodent carcinogenicity bioassays, tumor incidence. In words: CCRIS carcinogenicity studies. The essentials:
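NCI-built, expert-reviewed records of carcinogenicity and related test outcomes (mutagenicity, tumor promotion/inhibition) compiled from published and report sources, historical span 1985-2011, not updated.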

Calls of active or inactive are those of the source. How the calls were made is not given here.

Regarding `CC(O)CN(CC(C)O)N=O` (configuration not stated), the carcinogen call is “active; positive” (Species: HAMSTER, Strain/Sex: SYRIAN/MALE,FEMALE, Route: SUBCUTANEOUS, Dose: 40 MG/KG IN SALINE ONCE, Tumor Site: Type of Lesion: PANCREAS: ADENOMA, ADENOCARCINOMA, INTRADUCTAL CARCINOMA); “active; positive” (Species: HAMSTER, Strain/Sex: SYRIAN/MALE, Route: SUBCUTANEOUS, Dose: 25, 125, 250 MG/KG 1/WK FOR LIFE, Dose: 25, 125, 250 MG/KG 1/WK FOR LIFE, Tumor Site: Type of Lesion: PANCREAS, NASAL CAVITY, LUNG, LIVER, TRACHEA, LARYNX, Tumor Site: Type of Lesion: PANCREAS, NASAL CAVITY, LUNG, LIVER, TRACHEA, LARYNX); “active; positive” (Species: HAMSTER, Strain/Sex: SYRIAN/MALE, Route: SUBCUTANEOUS, Dose: 250, 500, 1000 MG/KG IN OLIVE OIL 1/WK FOR 20 WK, Dose: 250, 500, 1000 MG/KG IN OLIVE OIL 1/WK FOR 20 WK, Tumor Site: Type of Lesion: PANCREAS: ADENOCARCINOMA); “active; positive” (Species: HAMSTER, Strain/Sex: SYRIAN/MALE, Route: SUBCUTANEOUS, Dose: 250 MG/KG IN OLIVE OIL 1/WK FOR 25 WK, Tumor Site: Type of Lesion: PANCREAS: ADENOCARCINOMA); “active; positive” (Species: MOUSE, Strain/Sex: ICR/FEMALE, Route: SUBCUTANEOUS, Dose: 0, 25, 50, 100 MG/KG BW ONCE ON DAYS 1 AND 8 OF AGE (STUDY DURATION: 50 WK), Dose: 0, 25, 50, 100 MG/KG BW ONCE ON DAYS 1 AND 8 OF AGE (STUDY DURATION: 50 WK), Tumor Site: Type of Lesion: LUNG: TUMOR, LIVER: TUMOR); “active; positive” (Species: MOUSE, Strain/Sex: ICR/MALE, Route: SUBCUTANEOUS, Dose: 0, 25, 50, 100 MG/KG BW ONCE ON DAYS 1 AND 8 OF AGE (STUDY DURATION: 50 WK), Dose: 0, 25, 50, 100 MG/KG BW ONCE ON DAYS 1 AND 8 OF AGE (STUDY DURATION: 50 WK), Tumor Site: Type of Lesion: LUNG: TUMOR, LIVER: TUMOR). Moreover, the carcinogen call by setting is: (Species: MOUSE, Strain/Sex: STRAIN-DD/MALE, Route: ORAL, Dose: 100, 250, 500, 1000 PPM IN DRINKING WATER (DAILY INTAKE: 6.3-34.2 MG), Dose: 100, 250, 500, 1000 PPM IN DRINKING WATER (DAILY INTAKE: 6.3-34.2 MG), Tumor Site: Type of Lesion: LUNG: ADENOMA, ADENOCARCINOMA, LIVER: HEMANGIOMA, HEMANGIOENDOTHELIOMA, HEMANGIOENDOTHELIAL SARCOMA) “active; positive”; (Species: RAT, Strain/Sex: SPRAGUE-DAWLEY/FEMALE, Route: ORAL, Dose: 106 MG/L IN DRINKING WATER 5 DAY/WK FOR 30 WK (TOTAL DOSE: 318 MG), Tumor Site: Type of Lesion: LIVER: HEPATOCELLULAR CARCINOMA, CHOLANGIOCARCINOMA, HEMANGIOENDOTHELIAL SARCOMA) “active; positive”; (Species: RAT, Strain/Sex: SPRAGUE-DAWLEY/FEMALE, Route: ORAL, Dose: 108 MG/L IN DRINKING WATER 5 DAY/WK FOR 50 WK (TOTAL DOSE 540 MG), Tumor Site: Type of Lesion: NASAL TURBINATES: ADENOCARCINOMA, SQUAMOUS CELL CARCINOMA) “active; positive”; (Species: RAT, Strain/Sex: WISTAR/MALE, Route: INTRAPERITONEAL, Dose: 3, 4 G/KG ONCE, Tumor Site: Type of Lesion: LUNG: ADENOMA, ADENOCARCINOMA) “active; positive”; (Species: RAT, Strain/Sex: WISTAR/MALE, Route: ORAL, Dose: 100, 500 PPM IN DRINKING WATER FOR 25 WK, Tumor Site: Type of Lesion: LUNG: ADENOMA, ADENOCARCINOMA, SQUAMOUS CELL CARCINOMA) “active; positive”; (Species: RAT, Strain/Sex: WISTAR/MALE, Route: ORAL, Dose: 100, 500 PPM IN DRINKING WATER FOR 52 WK, Tumor Site: Type of Lesion: LUNG: ADENOMA, ADENOCARCINOMA, SQUAMOUS CELL CARCINOMA, LIVER: HEMANGIOMA, HEPATOCELLULAR CARCINOMA) “active; positive”.
Consider `N[C@@H](CCC(=O)NNc1ccc(CO)cc1)C(=O)O`, for which the carcinogen call was “inactive; negative” (Species: MOUSE, Strain/Sex: SWISS/FEMALE, Route: SUBCUTANEOUS, Dose: 0, 100 UG IN 0.01 ML PHYSIOLOGICAL SALINE 1/WK FOR 5 WK (STUDY DURATION: LIFETIME)); “inactive; negative” (Species: MOUSE, Strain/Sex: SWISS/FEMALE, Route: SUBCUTANEOUS, Dose: 0, 100 UG IN 0.01 ML PHYSIOLOGICAL SALINE ONCE (STUDY DURATION: LIFETIME)); “inactive; negative” (Species: MOUSE, Strain/Sex: SWISS/MALE, Route: SUBCUTANEOUS, Dose: 0, 50 UG IN 0.01 ML PHYSIOLOGICAL SALINE ONCE (STUDY DURATION: LIFETIME)); “inactive; negative” (Species: MOUSE, Strain/Sex: SWISS/MALE, Route: SUBCUTANEOUS, Dose: 0, 100 UG IN 0.01 ML PHYSIOLOGICAL SALINE 1/WK FOR 5 WK (STUDY DURATION: LIFETIME)).
As to `Nc1ccccc1C(=O)O`, the carcinogen call was “inactive; negative” (Species: MOUSE, Strain/Sex: B6C3F1/FEMALE, Route: ORAL, Dose: 0, 25000, 50000 PPM IN DIET, Dose: 0, 25000, 50000 PPM IN DIET); “inactive; negative” (Species: MOUSE, Strain/Sex: B6C3F1/MALE, Route: ORAL, Dose: 0, 25000, 50000 PPM IN DIET, Dose: 0, 25000, 50000 PPM IN DIET); “inactive; negative” (Species: RAT, Strain/Sex: F344/FEMALE, Route: ORAL, Dose: 0, 15000, 30000 PPM IN DIET, Dose: 0, 15000, 30000 PPM IN DIET); “inactive; negative” (Species: RAT, Strain/Sex: F344/MALE, Route: ORAL, Dose: 0, 15000, 30000 PPM IN DIET, Dose: 0, 15000, 30000 PPM IN DIET).
In the case of `C[N+](C)(C)NCCC(=O)[O-]`, the carcinogen call runs as follows: (Species: MOUSE, Strain/Sex: B6D2F1/FEMALE, Route: GAVAGE, Dose: 0, 400, 4000 MG/KG BW IN 0.2 ML WATER 3X/WK FOR 22 MONTHS (STUDY DURATION: 22 MONTHS), Dose: 0, 400, 4000 MG/KG BW IN 0.2 ML WATER 3X/WK FOR 22 MONTHS (STUDY DURATION: 22 MONTHS)) “inactive; negative”; (Species: MOUSE, Strain/Sex: C3H/FEMALE, Route: ORAL, Dose: 0, 0.1% IN DRINKING WATER FOR LIFETIME (STUDY DURATION: LIFETIME)) “inactive; negative”; (Species: MOUSE, Strain/Sex: SHR/FEMALE, Route: SUBCUTANEOUS, Dose: 0, 0.1 MG IN ISOTONIC SALINE 1X/D FOR 5 D WITH 4-WK INTERVALS FOR LIFETIME (STUDY DURATION: LIFETIME)) “inactive; negative”.
`COc1cc(OC)nc(NC(=O)NS(=O)(=O)c2c(Cl)nc3ccccn23)n1`: the carcinogen call by setting is: (Species: Mouse, Strain/Sex: CD-1/Female (50/Group), Route: Oral, Dose: 0, 86.8, 870.0, 10,303.5 mg/kg/day of 99.6-99.8% imazosulfuron in diet for 18 mo, study duration 18 mo, Dose: 0, 86.8, 870.0, 10,303.5 mg/kg/day of 99.6-99.8% imazosulfuron in diet for 18 mo, study duration 18 mo) “inactive; negative”; (Species: Mouse, Strain/Sex: CD-1/Male (50/Group), Route: Oral, Dose: 0, 72.7, 741.3, 7848.1 mg/kg/day of 99.6-99.8% imazosulfuron in diet for 18 mo, study duration 18 mo, Dose: 0, 72.7, 741.3, 7848.1 mg/kg/day of 99.6-99.8% imazosulfuron in diet for 18 mo, study duration 18 mo) “inactive; negative”; (Species: Rat, Strain/Sex: CD (Sprague-Dawley derived)/Female (50/Group), Route: Oral, Dose: 0, 12.94, 132.46, 1554.35 mg/kg/day of 99.6-99.8% imazosulfuron in diet for 24 mo, study duration 24 mo, Dose: 0, 12.94, 132.46, 1554.35 mg/kg/day of 99.6-99.8% imazosulfuron in diet for 24 mo, study duration 24 mo) “inactive; negative”; (Species: Rat, Strain/Sex: CD (Sprague-Dawley derived)/Male (50/Group), Route: Oral, Dose: 0, 10.39, 106.10, 1123.99 mg/kg/day of 99.6-99.8% imazosulfuron in diet for 24 mo, study duration 24 mo, Dose: 0, 10.39, 106.10, 1123.99 mg/kg/day of 99.6-99.8% imazosulfuron in diet for 24 mo, study duration 24 mo) “inactive; negative”.
